Assay results as given in US12624396B2, “Methods for alleviating facioscapulohumeral dystrophy (FSHD) by an antisense nucleic acid molecule inhibiting the expression of double homeobox 4 (DUX4)” (Fred Hutchinson Cancer Center, priority 2010, dated 2026).
“Also recorded” adds a separate entry of the source.

Assays:
[1] = tested on: DUX4 mRNA in FSHD fibroblasts; experiment: DUX4 mRNA in FSHD fibroblasts with beta-estradiol inducible MyoD, cycloheximide addition and washout; assay type: cell-based, human; settings: MyoD induction, 38 hours in differentiation conditions, chx added, FIG. 24
Description: The 3-prime untranslated region (UTR) of the DUX4 mRNA has an unusual exon-intron structure. The translational stop codon is in the first exon, whereas the polyadenylation sequence is in the third exon. The separation of the translational stop codon from the polyadenylation site by two exon-intron junctions would be predicted to make this mRNA subject to translation dependent nonsense mediated decay.
FSHD fibroblasts expressing low amounts of DUX4 mRNA were stably transduced with a beta-estradiol inducible MyoD so that addition of beta-estradiol will convert them to skeletal muscle, which after 96 hours of induction increases the steady-state levels of the DUX4 mRNA and activates expression of the MyoD target Mgn (compare lanes 1 and 2). […] Washout of the chx results in the rapid loss of the DUX4 mRNA, disappearing between 2 and 8 hrs of washout. The loss of DUX4 mRNA is associated with its translation since the DUX4 target PRAME 1 is induced as the DUX4 mRNA disappears.

[2] = tested on: DUX4-fl mRNA in FSHD muscle cells; experiment: DUX4-fl mRNA in FSHD muscle cells treated with MAO inhibitors (RT-PCR); assay type: cell-based, human
Description: The monamine oxidase inhibitor pargyline has been reported to inhibit the activity of the LSD1 histone demethylase that demethylates H3K9.
FIG. 22 graphically illustrates that pargyline decreases the amount of DUX4 mRNA in FSHD muscle cells.
Middle panel is a no RT control and bottom panel is a GAPDH loading control.

Row | SMILES | DUX4 mRNA level [1] | abundance of DUX4-fl mRNA ([2]; FSHD muscle cells expressing endogenous DUX4-fl mRNA, quantitative RT-PCR, FIG. 22) | amount of DUX4-fl mRNA ([2]; cultured FSHD muscle cells differentiated 48 hours in differentiation medium with varying amounts of pargyline, RT-PCR, FIG. 23)
1 | C[C@@H]1C[C@@H]([C@H](O)CC2CC(=O)NC(=O)C2)C(=O)[C@@H](C)C1 [cycloheximide] | accumulation of the DUX4 mRNA; also recorded: significant increase in DUX4 mRNA | – | –
2 | C#CCN(C)Cc1ccccc1 [pargyline] | – | suppresses the expression of DUX4 mRNA; also recorded: decreases the abundance of DUX4-fl mRNA in a dose-dependent manner | dose-dependent inhibition of DUX4 mRNA expression
